Laboratory results as given in US20260138958A1, “SUBSTITUTED N-PHENYLURACILS AND SALTS THEREOF, AND USE THEREOF AS HERBICIDAL ACTIVE SUBSTANCES” (Bayer Aktiengesellschaft, priority 2022, published 2026).

Columns and labels:
Format in all cases: in vivo
[1] = test system: Lolium rigidum (LOLRI); assay: Post-emergence herbicidal action, greenhouse pot test
Method: (§1) Seeds of monocotyledonous and dicotyledonous weeds and crop plants were placed in sandy loam in plastic or wood-fibre pots, covered with soil and cultivated in a greenhouse under controlled growth conditions. 2 to 3 weeks after sowing, the test plants were treated at the one-leaf stage. The compounds of the invention, formulated in the form of wettable powders (WP) or as emulsion concentrates (EC), were then sprayed onto the green parts of the plants as aqueous suspension or emulsion with addition of 0.5% additive at a water application rate of 600 l/ha (converted). After the test plants had been kept in the greenhouse under optimum growth conditions for about 3 weeks, the activity of the preparations was rated visually in comparison to untreated controls. For example, 100% activity=the plants have died, 0% activity=like control plants.

[2] = test system: Abutilon theophrasti (ABUTH); assay: as above; conditions: for pest or weed control at 5 g/ha / pest or weed control at 20 g/ha: Abutilon theophrasti, 504 h; for pest or weed control at 5 g/ha: read-out: Post-emergence effect at 5 g/ha against ABUTH in %; for pest or weed control at 20 g/ha: read-out: Post-emergence effect at 20 g/ha against ABUTH in %
Method: as §1

[3] = test system: Polygonum convolvulus (POLCO); assay: as above; conditions: for pest or weed control at 5 g/ha / pest or weed control at 20 g/ha: Fallopia convolvulus, 504 h; for pest or weed control at 5 g/ha: read-out: Post-emergence effect at 5 g/ha against POLCO in %; for pest or weed control at 20 g/ha: read-out: Post-emergence effect at 20 g/ha against POLCO in %
Method: as §1

[4] = test system: Pharbitis purpurea (PHBPU); assay: as above; conditions: Ipomoea purpurea, 504 h; for pest or weed control at 5 g/ha: read-out: Post-emergence effect at 5 g/ha against PHBPU in %; for pest or weed control at 20 g/ha: read-out: Post-emergence effect at 20 g/ha against PHBPU in %
Method: as §1

[5] = test system: Alopecurus myosuroides (ALOMY); assay: as above; conditions: for pest or weed control at 20 g/ha: Alopecurus myosuroides, 504 h, read-out: Post-emergence effect at 20 g/ha against ALOMY in %
Method: as §1

[6] = test system: Veronica persica (VERPE); assay: as above; conditions: for pest or weed control at 5 g/ha / pest or weed control at 20 g/ha: Veronica persica, 504 h; for pest or weed control at 5 g/ha: read-out: Post-emergence effect at 5 g/ha against VERPE in %; for pest or weed control at 20 g/ha: read-out: Post-emergence effect at 20 g/ha against VERPE in %
Method: as §1

[7] = test system: Tripleurospermum inodorum (MATIN); assay: as above; conditions: Tripleurospermum inodorum, 504 h, 20 g/ha, read-out: Post-emergence effect at 20 g/ha against MATIN in %
Method: as §1

[8] = test system: Bassia scoparia (KCHSC); assay: as above
Method: as §1

[9] = test system: Viola tricolor (VIOTR); assay: as above; conditions: for pest or weed control at 20 g/ha: Viola tricolor, 504 h, read-out: Post-emergence effect at 20 g/ha against VIOTR in %
Method: as §1

[10] = test system: Amaranthus retroflexus (AMARE); assay: as above; conditions: Amaranthus retroflexus, 504 h; for pest or weed control at 1.25 g/ha: read-out: Post-emergence effect at 1.25 g/ha against AMARE in %; for pest or weed control at 5 g/ha: read-out: Post-emergence effect at 5 g/ha against AMARE in %; for pest or weed control at 20 g/ha: read-out: Post-emergence effect at 20 g/ha against AMARE in %
Method: as §1

[11] = test system: Digitaria sanguinalis (DIGSA); assay: as above
Method: as §1

[12] = test system: Echinochloa crus-galli (ECHCG); assay: as above; conditions: for pest or weed control at 20 g/ha: Echinochloa crus-galli, 504 h, read-out: Post-emergence effect at 20 g/ha against ECHCG in %
Method: as §1

[13] = test system: Setaria viridis (SETVI); assay: as above; conditions: for pest or weed control at 5 g/ha / pest or weed control at 20 g/ha: Setaria viridis, 504 h; for pest or weed control at 5 g/ha: read-out: Post-emergence effect at 5 g/ha against SETVI in %; for pest or weed control at 20 g/ha: read-out: Post-emergence effect at 20 g/ha against SETVI in %
Method: as §1

[14] = test system: Triticum aestivum (TRZAS); assay: Post-emergence crop plant compatibility, greenhouse pot test; conditions: Triticum aestivum, in vivo
Method: as §1
(§2) The observed effects on selected crop plants are reported here in comparison to the untreated controls (values in %).

[15] = test system: Zea mays (ZEAMX); assay: as above; conditions: Zea mays, in vivo
Method: as §1, §2

Cn1c(C(F)(F)F)cc(=O)n(-c2cc(Oc3ccccc3OCC(=O)OCC3CCC3)c(Cl)cc2F)c1=O [I.7-10, Cyclobutylmethyl (2-{2-chloro-4-fluoro-5-[3-methyl-2,6-dioxo-4-(trifluoromethyl)-3,6-dihydropyrimidin-1(2H)-yl]phenoxy}phenoxy)acetate]
Post-emergence effect at 20 g/ha against LOLRI in % [1]: 100%
Post-emergence effect at 1.25 g/ha against ABUTH in % [2]: 100%
pest or weed control at 5 g/ha [2]: 100%
pest or weed control at 20 g/ha [2]: 100%
Post-emergence effect at 1.25 g/ha against POLCO in % [3]: 100%
pest or weed control at 5 g/ha [3]: 100%
pest or weed control at 20 g/ha [3]: 100%
pest or weed control at 5 g/ha [4]: 100%
pest or weed control at 20 g/ha [4]: 100%
pest or weed control at 20 g/ha [5]: 100%
Post-emergence effect at 1.25 g/ha against VERPE in % [6]: 100%
pest or weed control at 5 g/ha [6]: 100%
pest or weed control at 20 g/ha [6]: 100%
pest or weed control at 20 g/ha [7]: 100%
Post-emergence effect at 1.25 g/ha against KCHSC in % [8]: 100%
Post-emergence effect at 5 g/ha against KCHSC in % [8]: 100%
Post-emergence effect at 20 g/ha against KCHSC in % [8]: 100%
Post-emergence effect at 1.25 g/ha against VIOTR in % [9]: 100%
Post-emergence effect at 5 g/ha against VIOTR in % [9]: 100%
pest or weed control at 20 g/ha [9]: 100%
pest or weed control at 1.25 g/ha [10]: 100%
pest or weed control at 5 g/ha [10]: 100%
pest or weed control at 20 g/ha [10]: 100%
Post-emergence effect at 1.25 g/ha against DIGSA in % [11]: 80%
Post-emergence effect at 5 g/ha against DIGSA in % [11]: 100%
Post-emergence effect at 20 g/ha against DIGSA in % [11]: 100%
Post-emergence effect at 1.25 g/ha against ECHCG in % ([12]; 1.25 g/ha): 100%
Post-emergence effect at 5 g/ha against ECHCG in % [12]: 100%
pest or weed control at 20 g/ha [12]: 100%
Post-emergence effect at 1.25 g/ha against SETVI in % ([13]; 1.25 g/ha): 100%
pest or weed control at 5 g/ha [13]: 100%
pest or weed control at 20 g/ha [13]: 100%
Post-emergence effect at 1.25 g/ha against TRZAS in % [14]: 20%

Cn1c(C(F)(F)F)cc(=O)n(-c2cc(Oc3ccccc3OCC(=O)OCC3CC34CC4)c(Cl)cc2F)c1=O (stereo not drawn) [I.7-18, Spiro[2.2]pentan-1-ylmethyl (2-{2-chloro-4-fluoro-5-[3-methyl-2,6-dioxo-4-(trifluoromethyl)-3,6-dihydropyrimidin-1(2H)-yl]phenoxy}phenoxy)acetate]
Post-emergence effect at 20 g/ha against LOLRI in % [1]: 100%
Post-emergence effect at 1.25 g/ha against ABUTH in % [2]: 100%
pest or weed control at 5 g/ha [2]: 100%
pest or weed control at 20 g/ha [2]: 100%
Post-emergence effect at 1.25 g/ha against POLCO in % [3]: 100%
pest or weed control at 5 g/ha [3]: 100%
pest or weed control at 20 g/ha [3]: 100%
pest or weed control at 5 g/ha [4]: 100%
pest or weed control at 20 g/ha [4]: 100%
Post-emergence effect at 5 g/ha against ALOMY in % ([5]; 5 g/ha): 80%
pest or weed control at 20 g/ha [5]: 100%
Post-emergence effect at 1.25 g/ha against VERPE in % [6]: 80%
pest or weed control at 5 g/ha [6]: 100%
pest or weed control at 20 g/ha [6]: 100%
pest or weed control at 20 g/ha [7]: 100%
Post-emergence effect at 1.25 g/ha against KCHSC in % [8]: 100%
Post-emergence effect at 5 g/ha against KCHSC in % [8]: 100%
Post-emergence effect at 20 g/ha against KCHSC in % [8]: 100%
Post-emergence effect at 1.25 g/ha against VIOTR in % [9]: 100%
Post-emergence effect at 5 g/ha against VIOTR in % [9]: 100%
pest or weed control at 20 g/ha [9]: 100%
pest or weed control at 1.25 g/ha [10]: 100%
pest or weed control at 5 g/ha [10]: 100%
pest or weed control at 20 g/ha [10]: 100%
Post-emergence effect at 1.25 g/ha against DIGSA in % [11]: 100%
Post-emergence effect at 5 g/ha against DIGSA in % [11]: 100%
Post-emergence effect at 20 g/ha against DIGSA in % [11]: 100%
Post-emergence effect at 5 g/ha against ECHCG in % [12]: 100%
pest or weed control at 20 g/ha [12]: 100%
pest or weed control at 5 g/ha [13]: 100%
pest or weed control at 20 g/ha [13]: 100%
Post-emergence effect at 1.25 g/ha against TRZAS in % [14]: 10%
Post-emergence effect at 1.25 g/ha against ZEAMX in % [15]: 20%
